Where two headings read alike, the source gives them in different places.
How the values were obtained:
Type in all cases: biochemical
CDK6-CYCLIND3 = CDK6-CYCLIND3 (Homo sapiens, UniProt Q00534); assay: Microfluidic LabChip inhibition assay, CDK6-CYCLIND3; settings: ATP 300 μM
Procedure: (§1) The reaction was terminated by the addition of EDTA. The plates were analyzed using a Caliper LabChip 3000.
(§2) Additional inhibition assays were performed as described above.

CDK4-CYCLIND1 = CDK4-CYCLIND1 (Homo sapiens, UniProt P11802); assay: Microfluidic LabChip inhibition assay, CDK4-CYCLIND1; settings: ATP 200 μM
Procedure: as §1, §2

CDK1/B = CDK1/B (Homo sapiens, UniProt P06493); assay: Inhibition assay, CDK1/B
Procedure: as §1, §2

CDK2-CYCLINA = CDK2-CYCLINA (Homo sapiens, UniProt P24941); assay: Microfluidic LabChip inhibition assay, CDK2-CYCLINA; settings: ATP 50 μM
Procedure: as §1, §2

CDK7 CyclinH = CDK7 CyclinH (Homo sapiens, UniProt P50613); assay: Inhibition assay, CDK7 CyclinH
Procedure: as §1, §2

CDK9-CYCLINT1 = CDK9-CYCLINT1 (Homo sapiens, UniProt P50750); assay: Microfluidic LabChip inhibition assay, CDK9-CYCLINT1; settings: ATP 10 μM
Procedure: as §1, §2

[1] = Table 3a, second values in parentheses on the line below, not explained, read-out: CDK4 CyclinD1 IC50
[2] = Table 3b, second values in parentheses on the line below, not explained, read-out: CDK4 CyclinD1 IC50
[3] = Table 3a, read-out: CDK1/B IC50
[4] = Table 3b, read-out: CDK1/B IC50

Chain of CDK4-CYCLIND1 (P11802 whole entry): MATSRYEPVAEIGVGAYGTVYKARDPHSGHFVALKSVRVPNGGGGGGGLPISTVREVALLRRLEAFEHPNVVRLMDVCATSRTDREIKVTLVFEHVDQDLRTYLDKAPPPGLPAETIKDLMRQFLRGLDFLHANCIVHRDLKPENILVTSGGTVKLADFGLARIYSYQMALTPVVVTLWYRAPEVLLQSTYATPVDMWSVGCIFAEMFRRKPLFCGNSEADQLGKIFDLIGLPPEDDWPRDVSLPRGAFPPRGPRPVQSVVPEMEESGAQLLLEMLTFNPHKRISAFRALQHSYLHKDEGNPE
Chain of CDK4-CYCLIND1 (P24385 whole entry partner): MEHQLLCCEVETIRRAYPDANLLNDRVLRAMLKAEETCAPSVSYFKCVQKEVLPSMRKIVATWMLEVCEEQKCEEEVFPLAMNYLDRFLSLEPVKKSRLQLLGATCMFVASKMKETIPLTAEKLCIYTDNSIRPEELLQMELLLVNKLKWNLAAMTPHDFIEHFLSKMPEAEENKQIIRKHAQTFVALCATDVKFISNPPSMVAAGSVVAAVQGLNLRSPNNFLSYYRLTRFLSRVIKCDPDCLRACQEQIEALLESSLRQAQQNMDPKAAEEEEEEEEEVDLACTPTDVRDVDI
Chain of CDK7 CyclinH (P50613 whole entry): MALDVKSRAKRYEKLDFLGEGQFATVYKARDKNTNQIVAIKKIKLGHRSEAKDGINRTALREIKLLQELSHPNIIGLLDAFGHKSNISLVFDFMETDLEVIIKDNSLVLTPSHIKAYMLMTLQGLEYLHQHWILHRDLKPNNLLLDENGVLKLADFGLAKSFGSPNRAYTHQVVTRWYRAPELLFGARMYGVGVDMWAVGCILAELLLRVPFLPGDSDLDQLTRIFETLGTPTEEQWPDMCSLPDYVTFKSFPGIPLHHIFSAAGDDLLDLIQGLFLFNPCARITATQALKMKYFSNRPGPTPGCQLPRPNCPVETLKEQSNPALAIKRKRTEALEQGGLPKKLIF
Chain of CDK7 CyclinH (P51946 whole entry partner): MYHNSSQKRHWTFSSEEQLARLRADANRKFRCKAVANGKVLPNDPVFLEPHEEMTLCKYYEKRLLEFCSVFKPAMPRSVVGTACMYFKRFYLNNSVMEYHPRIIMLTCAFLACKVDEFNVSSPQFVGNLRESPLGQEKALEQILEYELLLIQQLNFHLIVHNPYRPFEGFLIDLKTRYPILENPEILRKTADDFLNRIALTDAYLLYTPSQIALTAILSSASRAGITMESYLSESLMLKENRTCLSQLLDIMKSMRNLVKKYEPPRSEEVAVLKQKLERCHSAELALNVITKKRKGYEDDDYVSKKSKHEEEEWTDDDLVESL
Chain of CDK7 CyclinH (P51948 whole entry partner): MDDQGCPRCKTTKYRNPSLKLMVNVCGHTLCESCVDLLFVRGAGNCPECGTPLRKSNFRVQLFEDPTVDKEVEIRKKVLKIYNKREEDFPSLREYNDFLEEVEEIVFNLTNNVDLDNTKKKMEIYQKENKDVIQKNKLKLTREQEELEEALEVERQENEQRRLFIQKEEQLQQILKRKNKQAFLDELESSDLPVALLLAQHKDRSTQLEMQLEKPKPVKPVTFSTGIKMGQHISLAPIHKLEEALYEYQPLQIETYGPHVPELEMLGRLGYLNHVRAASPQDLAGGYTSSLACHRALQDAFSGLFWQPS
Chain of CDK1/B (P06493 whole entry): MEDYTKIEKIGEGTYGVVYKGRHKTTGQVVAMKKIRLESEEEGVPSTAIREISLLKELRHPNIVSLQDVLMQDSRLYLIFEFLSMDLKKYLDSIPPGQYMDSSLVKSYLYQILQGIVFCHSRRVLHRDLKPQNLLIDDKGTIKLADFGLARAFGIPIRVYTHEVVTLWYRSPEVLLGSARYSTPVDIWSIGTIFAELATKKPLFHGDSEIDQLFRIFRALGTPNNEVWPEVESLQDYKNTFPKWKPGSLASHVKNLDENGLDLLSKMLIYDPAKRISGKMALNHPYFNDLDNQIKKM
Chain of CDK1/B (P14635 whole entry partner): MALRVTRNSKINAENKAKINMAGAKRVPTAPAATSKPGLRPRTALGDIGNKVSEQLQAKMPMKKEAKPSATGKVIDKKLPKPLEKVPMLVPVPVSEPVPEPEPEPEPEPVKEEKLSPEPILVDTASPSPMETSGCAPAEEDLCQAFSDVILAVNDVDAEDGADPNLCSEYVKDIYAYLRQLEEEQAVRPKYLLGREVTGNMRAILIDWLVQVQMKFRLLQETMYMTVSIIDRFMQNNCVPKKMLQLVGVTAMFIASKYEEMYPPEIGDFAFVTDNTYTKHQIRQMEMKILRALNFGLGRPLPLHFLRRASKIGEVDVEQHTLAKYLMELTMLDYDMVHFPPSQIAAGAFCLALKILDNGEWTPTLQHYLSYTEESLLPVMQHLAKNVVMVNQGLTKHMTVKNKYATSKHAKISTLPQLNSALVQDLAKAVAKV
Chain of CDK9-CYCLINT1 (P50750 whole entry): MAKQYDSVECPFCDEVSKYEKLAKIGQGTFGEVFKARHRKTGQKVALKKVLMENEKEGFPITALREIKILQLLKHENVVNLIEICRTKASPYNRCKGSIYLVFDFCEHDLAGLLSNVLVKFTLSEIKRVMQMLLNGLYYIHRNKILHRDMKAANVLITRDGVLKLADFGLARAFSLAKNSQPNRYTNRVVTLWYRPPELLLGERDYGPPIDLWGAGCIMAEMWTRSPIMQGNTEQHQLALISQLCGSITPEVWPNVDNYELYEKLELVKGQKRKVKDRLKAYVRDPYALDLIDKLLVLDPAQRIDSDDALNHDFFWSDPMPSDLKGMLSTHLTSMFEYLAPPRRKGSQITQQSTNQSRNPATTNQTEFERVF
Chain of CDK9-CYCLINT1 (O60563 whole entry partner): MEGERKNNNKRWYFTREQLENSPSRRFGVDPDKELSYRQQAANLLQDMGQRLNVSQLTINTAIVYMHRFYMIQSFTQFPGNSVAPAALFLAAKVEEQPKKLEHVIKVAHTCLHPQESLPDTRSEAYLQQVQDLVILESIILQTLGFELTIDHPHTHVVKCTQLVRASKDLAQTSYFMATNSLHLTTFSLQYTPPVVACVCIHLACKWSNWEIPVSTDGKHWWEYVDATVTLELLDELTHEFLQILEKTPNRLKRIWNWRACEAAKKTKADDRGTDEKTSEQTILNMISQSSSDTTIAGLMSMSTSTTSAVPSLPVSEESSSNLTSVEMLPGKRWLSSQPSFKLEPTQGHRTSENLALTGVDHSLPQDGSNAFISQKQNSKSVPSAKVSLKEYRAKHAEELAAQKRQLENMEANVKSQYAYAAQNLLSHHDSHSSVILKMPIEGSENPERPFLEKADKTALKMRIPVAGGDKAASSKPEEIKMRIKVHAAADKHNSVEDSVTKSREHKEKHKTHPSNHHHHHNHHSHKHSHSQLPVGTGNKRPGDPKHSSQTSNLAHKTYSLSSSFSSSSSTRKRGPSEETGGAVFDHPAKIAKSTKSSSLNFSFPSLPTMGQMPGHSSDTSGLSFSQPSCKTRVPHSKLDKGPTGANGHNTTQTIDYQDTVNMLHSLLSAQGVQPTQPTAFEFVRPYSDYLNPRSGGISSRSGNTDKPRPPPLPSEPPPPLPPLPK
Chain of CDK6-CYCLIND3 (Q00534 whole entry): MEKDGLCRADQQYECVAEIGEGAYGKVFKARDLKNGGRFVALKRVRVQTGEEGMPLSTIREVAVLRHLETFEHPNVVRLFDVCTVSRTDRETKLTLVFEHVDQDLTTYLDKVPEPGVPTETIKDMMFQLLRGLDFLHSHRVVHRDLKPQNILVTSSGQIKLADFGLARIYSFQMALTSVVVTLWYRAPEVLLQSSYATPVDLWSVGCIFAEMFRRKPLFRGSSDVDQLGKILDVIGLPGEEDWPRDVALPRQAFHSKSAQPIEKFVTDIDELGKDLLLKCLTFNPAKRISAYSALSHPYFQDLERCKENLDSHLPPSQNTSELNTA
Chain of CDK6-CYCLIND3 (P30281 whole entry partner): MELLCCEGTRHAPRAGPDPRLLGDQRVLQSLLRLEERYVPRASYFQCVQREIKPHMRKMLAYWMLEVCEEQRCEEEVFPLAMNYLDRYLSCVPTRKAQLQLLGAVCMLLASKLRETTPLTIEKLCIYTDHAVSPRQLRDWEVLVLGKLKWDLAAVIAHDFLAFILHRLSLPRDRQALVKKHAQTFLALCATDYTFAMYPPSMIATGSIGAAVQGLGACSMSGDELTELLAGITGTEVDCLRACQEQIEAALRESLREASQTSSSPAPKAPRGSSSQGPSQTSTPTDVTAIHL

CN1CCN(c2ccc(Nc3ncc4cc(C#N)c(=O)n(C56CC(C5)C6)c4n3)cc2F)CC1 [Compound B148, 8-(bicyclo[1.1.1]pentan-1-yl)-2-((3-fluoro-4-(4-methylpiperazin-1-yl)phenyl)amino)-7-oxo-7,8-dihydropyrido[2,3-d]pyrimidine-6-carbonitrile]
IC50 (CDK6-CYCLIND3; Table 3a, read-out: CDK6 CyclinD3 IC50): 102 nM | IC50 (CDK4-CYCLIND1; [1]): 59.6 nM | IC50 (CDK4-CYCLIND1; [2]): 59.6 nM

CN(C)CCOc1ccc(Nc2ncc3cc(C#N)c(=O)n(C45CC(C4)C5)c3n2)nc1 [Compound B149, 8-(bicyclo[1.1.1]pentan-1-yl)-2-((5-(2-(dimethylamino)ethoxy)pyridin-2-yl)amino)-7-oxo-7,8-dihydropyrido[2,3-d]pyrimidine-6-carbonitrile]
IC50 (CDK1/B; [3]): > 10000 nM | IC50 (CDK1/B; [4]): > 10000 nM | IC50 (CDK2-CYCLINA; Table 3a): > 10000 nM | IC50 (CDK2-CYCLINA; Table 3b): > 10000 nM | IC50 (CDK7 CyclinH; Table 3a): > 10000 nM | IC50 (CDK7 CyclinH; Table 3b): > 10000 nM | IC50 (CDK4-CYCLIND1; [1]): 505 nM | IC50 (CDK4-CYCLIND1; [2]): 505 nM | IC50 (CDK9-CYCLINT1; Table 3a): 733 nM | IC50 (CDK9-CYCLINT1; Table 3b): 733 nM

CC(=O)c1c(C)c2cnc(Nc3ccc(N4CC(C)NC(C)C4)cc3)nc2n(C2CCCC2)c1=O (centres unmarked) [Compound B150, 6-acetyl-8-cyclopentyl-2-((4-(3,5-dimethylpiperazin-1-yl)phenyl)amino)-5-methylpyrido[2,3-d]pyrimidin-7(8H)-one]
IC50 (CDK1/B; [3]): 501 nM | IC50 (CDK2-CYCLINA; Table 3a): 196 nM | IC50 (CDK2-CYCLINA; Table 3b): 196 nM | IC50 (CDK7 CyclinH; Table 3a): 655 nM | IC50 (CDK7 CyclinH; Table 3b): 655 nM | IC50 (CDK4-CYCLIND1; [1]): < 3.2 nM | IC50 (CDK4-CYCLIND1; [2]): < 3.2 nM

Cc1c(C(=O)N(C)C)c(=O)n(C2CCCC2)c2nc(Nc3ccc(N4CC(C)NC(C)C4)cc3)ncc12 (centres unmarked) [Compound B151, 8-cyclopentyl-2-((4-(3,5-dimethylpiperazin-1-yl)phenyl)amino)-N,N,5-trimethyl-7-oxo-7,8-dihydropyrido[2,3-d]pyrimidine-6-carboxamide]
IC50 (CDK1/B; [3]): > 10000 nM | IC50 (CDK1/B; [4]): > 10000 nM | IC50 (CDK2-CYCLINA; Table 3a): > 10000 nM | IC50 (CDK2-CYCLINA; Table 3b): > 10000 nM | IC50 (CDK7 CyclinH; Table 3a): > 10000 nM | IC50 (CDK7 CyclinH; Table 3b): > 10000 nM | IC50 (CDK4-CYCLIND1; [1]): 8.93 nM | IC50 (CDK4-CYCLIND1; [2]): 8.93 nM | IC50 (CDK9-CYCLINT1; Table 3a): 5140 nM | IC50 (CDK9-CYCLINT1; Table 3b): 5140 nM

CS(=O)(=O)N1CCC(Nc2ncc3cc(C#N)c(=O)n(C4CCCC4)c3n2)CC1 [Compound B152, 8-cyclopentyl-2-((1-(methylsulfonyl)piperidin-4-yl)amino)-7-oxo-7,8-dihydropyrido[2,3-d]pyrimidine-6-carbonitrile]
IC50 (CDK1/B): 47.9 nM | IC50 (CDK2-CYCLINA; Table 3a): 15.3 nM | IC50 (CDK2-CYCLINA; Table 3b): 15.3 nM | IC50 (CDK7 CyclinH; Table 3a): 745 nM | IC50 (CDK7 CyclinH; Table 3b): 745 nM | IC50 (CDK4-CYCLIND1; [1]): 3.29 nM | IC50 (CDK4-CYCLIND1; [2]): 3.29 nM | IC50 (CDK9-CYCLINT1; Table 3a): 105 nM | IC50 (CDK9-CYCLINT1; Table 3b): 105 nM

CN(C)C(=O)c1cc2cnc(NC3CCN(S(C)(=O)=O)CC3)nc2n(C2CCCC2)c1=O [Compound B153, 8-cyclopentyl-N,N-dimethyl-2-((1-(methylsulfonyl)piperidin-4-yl)amino)-7-oxo-7,8-dihydropyrido[2,3-d]pyrimidine-6-carboxamide]
IC50 (CDK1/B; [3]): 763 nM | IC50 (CDK2-CYCLINA; Table 3a): 285 nM | IC50 (CDK2-CYCLINA; Table 3b): 285 nM | IC50 (CDK7 CyclinH; Table 3a): > 10000 nM | IC50 (CDK7 CyclinH; Table 3b): > 10000 nM | IC50 (CDK4-CYCLIND1; [1]): 21.3 nM | IC50 (CDK4-CYCLIND1; [2]): 21.3 nM | IC50 (CDK9-CYCLINT1; Table 3a): 4580 nM | IC50 (CDK9-CYCLINT1; Table 3b): 4580 nM

CC(=O)c1c(C)c2cnc(Nc3ccc(N(C)CCN(C)C)cc3)nc2n(C23CC(C2)C3)c1=O [Compound B154, 6-acetyl-8-(bicyclo[1.1.1]pentan-1-yl)-2-((4-((2-(dimethylamino)ethyl)(methyl)amino)phenyl)amino)-5-methylpyrido[2,3-d]pyrimidin-7(8H)-one]
IC50 (CDK1/B; [3]): 1720 nM | IC50 (CDK2-CYCLINA; Table 3a): 1520 nM | IC50 (CDK2-CYCLINA; Table 3b): 1520 nM | IC50 (CDK7 CyclinH; Table 3a): 785 nM | IC50 (CDK7 CyclinH; Table 3b): 785 nM

CC(=O)c1c(C)c2cnc(Nc3ccc(N(C)CCN(C)C)cc3)nc2n(C2CCCC2)c1=O [Compound B155, 6-acetyl-8-cyclopentyl-2-((4-((2-(dimethylamino)ethyl)(methyl)amino)phenyl)amino)-5-methylpyrido[2,3-d]pyrimidin-7(8H)-one]
IC50 (CDK1/B; [3]): 172 nM | IC50 (CDK2-CYCLINA; Table 3a): 81.6 nM | IC50 (CDK2-CYCLINA; Table 3b): 81.6 nM | IC50 (CDK7 CyclinH; Table 3a): 468 nM | IC50 (CDK7 CyclinH; Table 3b): 468 nM | IC50 (CDK4-CYCLIND1; [1]): < 3.2 nM | IC50 (CDK4-CYCLIND1; [2]): < 3.2 nM

CN1CCN(c2ccc(Nc3ncc4cc(C#N)c(=O)n(C5CCCC5)c4n3)cc2)CC1 [ON123300]
IC50 (CDK6-CYCLIND3; Table 2, 25° C., read-out: CDK6 IC50): 4.76 nM | IC50 (CDK4-CYCLIND1; Table 2, 25° C., read-out: CDK4 IC50): 1.68 nM

— patent US20220220103A1, “CYCLIN-DEPENDENT KINASE INHIBITORS” (SPV THERAPEUTICS INC., priority 2018, published 2022)
